Reference: patent US11072628B2, “Nucleoside analogues for the treatment of parasitic infections” (UNIVERSITEIT GENT, priority 2017, dated 2021)
“Also recorded” adds a separate entry of the source. Read-outs that look alike come from different tables or passages of the source.

Legend:
[1] = system: T. b. brucei Squib 427; assay: In vivo antiparasitic activity in mice (T. brucei; acute model); set-up: species or system Trypanosoma brucei brucei
Method: The test compound of the invention was formulated in 10% (V/V) PEG400 in water at 2 mg/mL and was freshly prepared at every administration. The test compound was administered orally (PO) b.i.d. for 5 days at 25 mg/kg. The reference drug suramin was formulated in PBS at 2.5 mg/mL and administered s.i.d. IP for 5 days at 10 mg/kg. Treatment was initiated ½ hour prior to the IP infection.

[2] = system: T. cruzi Tulahuen CL2 β galactosidase strain; assay: T. cruzi Tulahuen CL2 β galactosidase strain on MRC-5SV2 cells (CPRG); format: cell-based, Trypanosoma cruzi; details: Trypanosoma cruzi, TULAHUEN, MRC-5 SV2
Method: All cultures and assays were conducted at 37° C./5% CO2. […] The results were expressed as % reduction in parasite burdens compared to control wells from which an EC50 was calculated.

[3] = system: T. brucei Squib 427; assay: In vitro drug susceptibility, T. brucei Squib 427 (resazurin); format: cell-based, Trypanosoma brucei brucei; details: for EC50: Trypanosoma brucei
Method: (§1) All trypanosome strains were cultured in the standard HMI-9 medium supplemented with 10% fetal bovine serum (FBS) at 37° C. in a 5% CO2 atmosphere.

[4] = Cytotoxicity against MRC-5 fibroblasts; details: human, MRC-5 fibroblasts, cytotoxicity
Method: Cytotoxicity was assayed against MRC-5 fibroblasts. Results are depicted in Tables 4 and 5.

[5] = system: T. brucei AnTAR1 PPYRE9; assay: In vivo antiparasitic activity in mice (T. brucei; stage-II disease model); set-up: species or system Trypanosoma brucei; details: treatment from 21 dpi for 5 days; 25 mg/kg PO b.i.d. or 25, 12.5 or 6.25 mg/kg s.i.d.
Method: The test compound, FH7429_D was formulated in 5% (V/V) Tween80 at 4 mg/mL and administered according to body weight (25 mg/kg bid., oral gavage) for 5 days. Treatment commenced at 21 dpi, in mice which had positive CNS involvement (BLI). Two reference groups: vehicle control as well as melarsoprol (120 mg/kg, s.i.d. topical for 3 days) were included. Topical melarsoprol formulation was prepared as following: 3.6% melarsprol in propylene glycol was used to prepare a 1.5% hydroxypropylcellulose (HPC) gel.
Parasitemia analysis was performed by microscopic evaluation of tail vein blood samples at 21 (before treatment initiation), 25, 28, 32 and 35 dpi. Bioluminescent imaging (BLI) was performed at 7, 14, 21, 28, 35, 43, 50 and 53 dpi. BLI experiments were performed as following: D-luciferin (15 mg/kg) was injected intraperitoneally, and mice were subsequently anaesthetized using isoflurane. The luminescent signal was measured over a 5 second as well as 5-minute exposure time, both for the ventral as well as the dorsal side of the animals.

[6] = system: T. b. rhodesiense STIB-900; assay: In vitro drug susceptibility, T. b. rhodesiense STIB-900 (resazurin); format: cell-based, Trypanosoma brucei rhodesiense; details: Trypanosoma brucei, RHODESIENSE, read-out: T. brucei rhod. EC50
Method: as §1

[7] = system: T. b. brucei Squib 427; details: comparison statement, not tested here; cited from earlier work
[8] = system: T. vaginalis trophozoites (metronidazole susceptible G3 strain); assay: Trichomonas vaginalis in vitro assay; format: cell-based; details: Trichomonas vaginalis, average of 2-5 independent replicates
Method: T. vaginalis trophozoites (metronidazole susceptible G3 strain) were grown in vitro in modified Diamond's media (MDM) with 10% heat inactivated horse serum (HIHS) acquired from Gibco Life Technologies. After medium preparation, the pH was adjusted to 6.3-6.4 employing 1.0 M aq. HCl. Parasites cultures were passaged every day by taking 1 mL of cell culture into a 25 mL bottle of fresh media to ensure the cells were kept at the appropriate concentration of ˜2×10^6 cells/mL. The culture flasks were filled completely and tightly capped to provide the cells with an anaerobic environment. The parasites were maintained in incubation at 37° C. When culturing in multiwell plates, the plates were sealed with Nescofilm® and inserted in BD GasPak EZ pouches (BD Diagnostics, UK) in order to create anaerobic conditions. Assays were performed with 5×10^4 trophozoites/well (100 μL) to which compound dilutions were added (100 μL). Outside wells of columns and rows were filled with 200 μL of sterile water. Plates were sealed with Nescofilm® and incubated under anaerobic conditions as described above. After 24 h, 30 μL of assay dye solution (resorufin) was added, and incubated for 1-2 h before being read using Fluostar Optima (BMG Labtech, UK) at an excitation wavelength of 544 nm and an emission wavelength of 620 nm.

[9] = system: T. cruzi (Y-strain); assay: In vivo antiparasitic activity in mice (T. cruzi Y-strain); set-up: species or system Trypanosoma cruzi; details: 25 mg/kg PO b.i.d. for five days starting at 5 dpi
Method: The animals were allowed to acclimate for 7 days before starting the experiments. […] Age-matched non-infected mice were maintained under identical conditions. The animals were divided into the following groups (n=6): uninfected (non-infected and non-treated), untreated (infected but treated only with vehicle), and treated (infected and treated with the compounds). […] Formulations were prepared freshly before each administration. Only mice with positive parasitemia were used in the infected groups. Parasitemia was individually checked by direct microscopic counting of the number of parasites in 5 μl of blood (Panel A—FIG. 5), and mice were checked for mortality daily until 30 days post-treatment (corresponding to 40 dpi). Mortality is expressed as the percent cumulative mortality (CM; Panel B—FIG. 5).

[10] = Table 2, average of 2-3 independent replicates
[11] = read-out: T. brucei brucei EC50, Table 1, average of 2-4 independent determinations

SMILES | EC50 [2, 10] | EC50 [3, 11] | EC50 ([4]; MRC-5 EC50, Table 1) | EC50 ([4]; MRC-5 EC50, Table 2) | EC50 [6] | blood parasitemia [9] | mortality caused by the infection [9] | further results
Nc1ncnc2c1ccn2[C@@H]1O[C@H](CO)C[C@H]1O [FH7429_D, 4-amino-N7-(3′-deoxy-β-D-ribofuranosyl)-pyrrolo[2,3-d]pyrimidine] | > 64 µM | 0.05 µM | > 64 µM | > 64 µM | 0.0005 µM |  |  | parasitological cure (sub-inoculation in naive mice) ([1]; animals surviving until day 21 post infection): total parasitological cure; also recorded: able cure an acute infection; clinical symptoms of trypanosomiasis / parasitemia ([1]; infected mice, 5 consecutive days, test compound 25 mg/kg PO b.i.d. (FH7429_D also 10 mg/kg s.i.d. IP), suramin 10 mg/kg): no clinical symptoms of trypanosomiasis were observed; adverse drug effects ([1]; mice, 5 days treatment): No signs of adverse drug effects were observed; cure in stage-II HAT model [5]: considered cured; parasitemia (BLI or tail vein blood analysis) [5]: did not show any signs of parasitemia from 28 dpi onwards
Nc1ncnc2c1ncn2[C@@H]1O[C@H](CO)C[C@H]1O [cordycepin, 3′-deoxy-adenosine] |  |  |  |  |  |  |  | clearance of T. brucei infection as a monotherapy [7]: unable to clear the infection
Nc1ncnc2c1c(-c1ccc(Cl)cc1)cn2[C@@H]1O[C@H](CO)[C@@H](O)[C@H]1O [TH1012, 4-amino-5-(4-chlorophenyl)-N7-(β-D-ribofuranosyl)-pyrrolo[2,3-d]pyrimidine] |  |  |  |  |  | full suppression of parasitemia | protected animals from mortality | EC50 ([2]; Table 5, average of 2-4 independent replicates): 0.47 µM; EC50 ([8]; Table 6): 0.03 µM; anti-trypanosomal activity against T. brucei, in words [3]: low μM EC50; EC50 ([3]; read-out: T.b. brucei EC50, Table 4, average of 2-6 independent determinations): 7.58 µM; EC50 ([4]; MRC-5 EC50, Table 4): 27 µM; EC50 ([4]; MRC-5 EC50, Table 5): 27 µM
Nc1ncnc2c1c(-c1ccc(Cl)cc1)cn2[C@@H]1O[C@H](CO)C[C@H]1O [FH8512, 4-amino-5-(4-chlorophenyl)-N7-(3′-deoxy-β-D-ribofuranosyl)-pyrrolo[2,3-d]pyrimidine] | 0.05 µM | 2.3 µM | 19.1 µM | 19.1 µM | 1.8 µM | suppress blood parasitemia | protect animals from mortality | EC50 ([8]; Table 3): 0.17 µM
